# Source: patent publication US7700590B2, “Antibacterial agents” (University of New Orleans Research and Technology …, priority 2006, dated 2010)
# How the values were obtained:
# Assay type in all cases: cell-based
# [1] = system: Gram positive bacteria, including S. aureus, E. faecalis and B. subtilis; assay: Antibacterial activity, statements not tied to one strain; conditions: for antibacterial activity in words: strain not singled out
# Experimental: (§1) The antibacterial activities of the compounds synthesized as described above were evaluated by assay against several strains of Gram positive bacteria from the American Type Culture Collection (ATCC), Staphylococcus aureus 29213, Staphylococcus aureus 43300, Enterococcus faecalis 29212, and Bacillus subtilis PY79. The minimum inhibition concentration (MIC, μg/mL) of each compound synthesized was tested against four bacterial strains. The inhibition of bacterial growth was monitored using a standard colorimeter at 600 nm using a serial dilution at concentrations 238, 119, 59.5, 29.8, 14.9, 7.44, 3.72, 1.86, 0.93, 0.46 μg/ml. Chloramphenicol was tested as a control, and inhibits bacteria growth (MIC90) at 7.44, 7.44, 4.0, 2.0 μg/mL, respectively, for the four bacterial strains listed in Table 1. In Table 1, the MICs are reported as the concentrations at 50% inhibition of bacteria growth, and N stands for no inhibition.
# [2] = system: Staphylococcus aureus 29213; assay: Antibacterial growth inhibition assay (serial dilution, colorimeter at 600 nm), S. aureus 29213; parameters: key to MIC, concentration at 50% inhibition of bacteria growth, S. aureus 29213: N stands for no inhibition; conditions: for MIC / MIC90: Staphylococcus aureus, 29213; for MIC / MIC, concentration at 50% inhibition of bacteria growth, S. aureus 29213: 50% growth inhibition, methicillin susceptible strain, serial dilution 238-0.46 μg/ml; for MIC: read-out: MIC, concentration at 50% inhibition of bacteria growth, S. aureus 29213; for MIC90: concentration of inhibition at 90%, Table 2, read-out: MIC90 S. aureus 29213
# Experimental: as §1
# [3] = system: Enterococcus faecalis 29212; assay: Antibacterial growth inhibition assay (serial dilution, colorimeter at 600 nm), E. faecalis 29212; parameters: key to MIC, concentration at 50% inhibition of bacteria growth, E. faecalis 29212: N stands for no inhibition; conditions: for MIC, concentration at 50% inhibition of bacteria growth, E. faecalis 29212 / MIC: 50% growth inhibition, vancomycin susceptible strain, serial dilution 238-0.46 μg/ml; for MIC: Enterococcus faecalis, 29212, read-out: MIC, concentration at 50% inhibition of bacteria growth, E. faecalis 29212
# Experimental: as §1
# [4] = system: Staphylococcus aureus 43300; assay: Antibacterial growth inhibition assay (serial dilution, colorimeter at 600 nm), S. aureus 43300; parameters: key to MIC, concentration at 50% inhibition of bacteria growth, S. aureus 43300: N stands for no inhibition; conditions: for MIC: Staphylococcus aureus, 43300, read-out: MIC, concentration at 50% inhibition of bacteria growth, S. aureus 43300; for MIC / MIC, concentration at 50% inhibition of bacteria growth, S. aureus 43300: 50% growth inhibition, methicillin resistant strain, serial dilution 238-0.46 μg/ml
# Experimental: as §1
# [5] = system: Bacillus subtilis PY79; assay: Antibacterial growth inhibition assay (serial dilution, colorimeter at 600 nm), B. subtilis PY79; parameters: key to MIC, concentration at 50% inhibition of bacteria growth, B. subtilis PY79: N stands for no inhibition; conditions: for MIC / MIC90: Bacillus subtilis, PY79; for MIC / MIC, concentration at 50% inhibition of bacteria growth, B. subtilis PY79: 50% growth inhibition, serial dilution 238-0.46 μg/ml; for MIC: read-out: MIC, concentration at 50% inhibition of bacteria growth, B. subtilis PY79; for MIC90: concentration of inhibition at 90%, Table 2, read-out: MIC90 B. subtilis PY79
# Experimental: as §1
"MIC, concentration at 50% inhibition of bacteria growth, E. faecalis 29212 [3]","MIC, concentration at 50% inhibition of bacteria growth, S. aureus 29213 [2]","MIC, concentration at 50% inhibition of bacteria growth, S. aureus 43300 [4]","MIC, concentration at 50% inhibition of bacteria growth, B. subtilis PY79 [5]",SMILES,antibacterial activity in words [1],other results
–,–,–,–,"CCN1CC[C@@H](CN(Cc2ccccc2)Cc2ccc(Cl)c(Cl)c2)OC1=O (stereo in doubt) [Compound A11, 6-{[benzyl-(3,4-dichloro-benzyl)-amino]-methyl}-3-ethyl-[1,3]oxazinan-2-one]",good activity,–
N,–,–,–,"CCN1CC[C@@H](CN(Cc2ccccc2)Cc2ccc(Cl)c(Cl)c2)OC1=O [Compound A11, 6-{[benzyl-(3,4-dichloro-benzyl)-amino]-methyl}-3-ethyl-[1,3]oxazinan-2-one]",most potent,"antibacterial activity in words ([2]; S. aureus 29213): excellent activity; MIC [2]: 5.6 µg/mL; MIC90 [2]: 9.85 µg/mL; MIC90 ([1]; strain not named in the sentence (Table 2: S. aureus 29213, B. subtilis PY79)): < 10 µg/mL; antibacterial activity in words ([3]; E. faecalis 29212): no activity; antibacterial activity in words ([4]; S. aureus 43300): excellent activity; MIC [4]: 6.56 µg/mL; antibacterial activity in words ([5]; B. subtilis PY79): excellent activity; MIC [5]: 5 µg/mL; MIC90 [5]: 7.44 µg/mL"
–,–,–,–,CCN1CC[C@@H](CN(Cc2ccccc2)Cc2cccc3ccccc23)OC1=O [Compound A13],most potent,MIC [2]: 10 µg/mL; MIC90 [2]: 14.9 µg/mL; MIC [3]: 7.4 µg/mL; MIC [4]: 35 µg/mL; MIC [5]: 7.6 µg/mL; MIC90 [5]: 30 µg/mL
238 µg/mL,N,N,N,CCN1CC[C@@H](CN(Cc2ccccc2)Cc2cccnc2)OC1=O [Compound A14],decreased or nullified,–
N,N,N,N,CCN1CC[C@@H](CN(Cc2ccccc2)Cc2ccccn2)OC1=O [Compound A15],decreased or nullified,–
80.5 µg/mL,90.0 µg/mL,90.0 µg/mL,95.0 µg/mL,CCN1CC[C@@H](CN(Cc2ccccc2)Cc2cccc(OC)c2)OC1=O [Compound A16],–,–
–,–,–,–,CCN1CC[C@@H](CN(Cc2ccccc2)Cc2ccccc2C)OC1=O [Compound A17],most potent,"concentration of complete (greater than 90%) inhibition ([2]; S. aureus 29213): 30 µg/mL; MIC [2]: 22 µg/mL; MIC90 [2]: 29.8 µg/mL; concentration inhibiting over 90% growth ([3]; E. faecalis 29212): 14.9 µg/mL; MIC [3]: 8.1 µg/mL; concentration of complete (greater than 90%) inhibition ([4]; S. aureus 43300, methicillin resistant): 30 µg/mL; MIC [4]: 22.5 µg/mL; MIC [5]: 26 µg/mL; MIC90 [5]: 59.5 µg/mL"
119 µg/mL,81.0 µg/mL,N,98.0 µg/mL,CN1CC[C@@H](CN(Cc2ccccc2)Cc2ccc([N+](=O)[O-])cc2)OC1=O [Compound B1],–,–
119 µg/mL,138 µg/mL,N,238 µg/mL,CN1CC[C@@H](CN(Cc2ccccc2)Cc2cccc([N+](=O)[O-])c2)OC1=O [Compound B2],–,–
238 µg/mL,179 µg/mL,N,238 µg/mL,CN1CC[C@@H](CN(Cc2ccccc2)Cc2ccccc2[N+](=O)[O-])OC1=O [Compound B3],–,–
238 µg/mL,200 µg/mL,N,238 µg/mL,CN1CC[C@@H](CN(Cc2ccccc2)Cc2ccc(C#N)cc2)OC1=O [Compound B4],–,–
7.40 µg/mL,180 µg/mL,238 µg/mL,180 µg/mL,CN1CC[C@@H](CN(Cc2ccccc2)Cc2cccc(C#N)c2)OC1=O [Compound B5],–,–
59.5 µg/mL,166 µg/mL,180 µg/mL,180 µg/mL,CN1CC[C@@H](CN(Cc2ccccc2)Cc2ccccc2C#N)OC1=O [Compound B6],–,–
120 µg/mL,87.1 µg/mL,119 µg/mL,95.0 µg/mL,CN1CC[C@@H](CN(Cc2ccccc2)Cc2ccc(F)cc2)OC1=O [Compound B7],–,–
59.5 µg/mL,50.0 µg/mL,72.0 µg/mL,55.0 µg/mL,CN1CC[C@@H](CN(Cc2ccccc2)Cc2ccc(F)cc2F)OC1=O [Compound B8],–,–
–,–,–,–,CN1CC[C@@H](CN(Cc2ccccc2)Cc2ccc3ccccc3c2)OC1=O [Compound B9],most potent,MIC [2]: 11.5 µg/mL; MIC90 [2]: 14.9 µg/mL; MIC [3]: 14.9 µg/mL; MIC [4]: 13 µg/mL; MIC [5]: 12 µg/mL; MIC90 [5]: 30 µg/mL
